Experimental findings from patent US20030134892A1, “Compositions for treatment of head and neck cancers, and methods of making and using the same” (priority 2001, published 2003) are described below.

For one experiment, the system named is JHU012 cells. The experiment is described as follows: Experiment 1: human orthotopic squamous cell head and neck cancer model, tumor size after treatment. The settings on record: 45 days following treatment. The experiment is classed as in vivo, Nu/nu mice. Here is the method: The efficacy of paclitaxel microsphere formulations in human orthotopic squamous cell head and neck cancer models were tested below.
Nu/nu mice were injected with 1×10^7 JHU012 cells into the anterior floor of mouth near the genial tubercle of the mandible. 12 days following cell injection, the tumors were approximately 80 mm^3. […] 45 days following treatment, the animals were sacrificed and tumors measured again.

Experiment [1] relates to human head and neck cancer cell line. The experiment is described as follows: Experiment 2: human tumor model with radiation, orthotopic tumor in the neck of a nude mouse. Type of experiment: in vivo. The settings on record: injected intratumorally three week post cell injection, followed by fractionated radiation (RT) 2 gy/day for 4 days. Here is the method:
In this study, the model is also a human head and neck cancer cell line but the tumor was grown orthotopically in the neck of a nude mouse. Three week post cell injection the tumors were injected intratumorally with paclimer and then followed by fractionated radiation, 2 gy/day for 4 days.

As to `CC(=O)O[C@H]1C(=O)[C@@]2(C)[C@H]([C@H](OC(=O)c3ccccc3)[C@]3(O)C[C@H](OC(=O)[C@H](O)[C@@H](NC(=O)c4ccccc4)c4ccccc4)C(C)=C1C3(C)C)[C@]1(OC(C)=O)CO[C@@H]1C[C@@H]2O` [ptx, paclitaxel], the “Tumor Size at end of Experiment 1” value with JHU012 cells (24 mg/kg i.p., tumors approx. 80 mm^3 at treatment) is recorded as 973.3 ± 91.7 mm^3. Further, in experiment [1], the “Tumor Size” value worked out at 102.3 ± 37.0 mm^3.
`O=c1[nH]cc(F)c(=O)[nH]1` [5-fu, 5-fluorouracil]: the “Tumor Size at end of Experiment 1” value with JHU012 cells (0.15 mmol/kg/day oral, 4 days) was found to be 518.7 ± 96.3 mm^3.
